Type in all cases: in vivo
Experiment [1] deals with histamine-induced bronchospasm in guinea pigs. The experiment is described as follows: Prophylactic anti-allergic effect: protection against histamine aerosol (1%) induced bronchospasm. The note with it: 239 mg/kg i.p. On the procedure:
The prophylactic anti-allergic effects of the Nigella sativa L. sterol fraction were evaluated in guinea pigs (300-400 grams). Animals were divided into 5 groups (10 animals each) and treated i.p. As follows:
First: Animals treated by saline.
Second: Animals treated by diphenhydramine (239 mg/kg/day).
Third: Animals treated by the Nigella sativa L. sterol fraction (50 mg/kg).
Animals treated by the Nigella sativa L. sterol fraction (100 mg/kg).
Fifth: Animals treated by the Nigella sativa L. sterol fraction (150mg/kg).
Animals were exposed 30 minutes after their i.p. Injection of diphenhydramine and the Nigella sativa L. sterol fraction (50,100 and 150 mg/kg) to histamine aerosol (1% for 3 minutes to induce bronchospasm or tachypnea) (Armitage et al, Br. J. Pharmacol., 16:59-76 (1961)). The percent protection against bronchospasm and loss of rightening after 30, 60 and 90 minutes was calculated (Dawson and Sweatman, Br. J. Pharmacol, 71:387-398 (1980)).

The subject of experiment [2] is ova albumin sensitized guinea pigs. The experiment is described as follows: Tachypnea protective effect in ova albumin sensitized animals. The conditions noted are these: 50 :g/kg, treated for 21 days, ova albumin inhalation. As for the experimental part:
This experiment was an in vivo study to evaluate the tachypnea (protective) effect of the Nigella sativa L. sterol fraction of the present invention. The second protocol involved sensitized animals. Animals were sensitized by injecting ova albumin in two doses 100 mg. each (S.C. and I.P., simultaneously). Animals were resensitized 15 days later. Guinea pigs were divided into three groups with 8 animals per group. The first group received a saline injection to serve as negative control. The second group received ketotifen which is the standard treatment to serve as positive control. The third group received 200 mg/kg each of the Nigella sativa L. sterol fraction of the present invention. Animals in all groups were treated for 21 days following which they were exposed to ova albumin inhalation and time to onset of tachypnea was recorded as shown in the table below.

For experiment [3], the system named is guinea pigs exposed to histamine aerosol (0.25%). The experiment is described as follows: Prophylactic anti-asthmatic effect: pre-convulsive time on histamine aerosol (0.25%). The conditions noted are these: 50 :g/kg, treated for 21 days, histamine 0.25% aerosol. As for the experimental part:
This example explains an in vivo study to evaluate the prophylactic (protective) anti-asthmatic effect of the Nigella sativa L. sterol fraction. The prophylactic anti-asthmatic effect was evaluated in vivo by measurement of the pre-convulsive time in guinea pigs exposed to histamine aerosol (0.25%).
Guinea pigs were divided into three groups with 8 animals per group. The first group received saline injections to serve as negative control. The second group received ketotifen, which is the standard treatment to serve as positive control. The third group received 200 mg/kg each of the Nigella sativa L. sterol fraction of the present invention.
Animals in all groups were treated for 21 days after which time they were exposed to histamine (0.25 %) aerosol and the preconvulsive time was recorded.

In the case of `CN(C)CCOC(c1ccccc1)c1ccccc1` [Diphenhydramine, diphenhydramine], the “% protection 30 minutes” value in experiment [1] (30 minutes) stood at 100%. Also, the “% protection 60 minutes” value in experiment [1] (60 minutes) is listed as 100%. Also, the “% protection 90 minutes” value in experiment [1] (90 minutes) turned out to be 90%.
As to `CN1CCC(=C2c3ccccc3CC(=O)c3sccc32)CC1` [ketotifen], the “% of Prophylaxis” value in experiment [2] was found to be 44.4%. Further, the “% of Prophylaxis (Protection)” value in experiment [3] was 82.85%.

Values taken from US20020132019A1, “Sterol fractions of Nigella sativa L. seeds” (priority 2000, published 2002).
